Measured values published in publication PMC9767416, “Discovery of small molecule mechanistic target of rapamycin inhibitors as anti-aging and anti-cancer therapeutics” (Frontiers in Aging Neuroscience, 2022).
In brackets after ≈: the same amount, converted by molar mass. Where two headings read alike, the source gives them in different places. Marks after values point to notes of the source that are not given here.

Experiments:
[1] = Dissociation constants by spectrophotometric titration; format: physicochemical; conditions: 20°C; for pKa: ultrapure water
Experimental: The spectrophotometric titration was used for dissociation constants’ determination, utilizing spectrophotometer Agilent Cary-60 (Agilent Technologies, CA, USA), pH meter WTW InoLab_IDS Multi 9430 (WTW, Czech Republic), and pH electrode SenTix® Mic (WTW, Czech Republic). Data were analyzed by GraphPadPrism 8.0 software (GraphPad Software, CA, USA). The analyzed samples were prepared by adding 20 μL of compound stock solution (2 mg/mL) and 20 μL of 0.1 M hydrochloric acid into the cuvette with ultrapure water (total volume 3.5 mL). The samples were titrated by 0.1 M sodium hydroxide at 20°C while acquiring absorption spectra (190–500 nm) at different pH values. Absorbance at the chosen wavelength was plotted as a function of pH. The inflection point in the given plot was used for pKa value determination.

[2] = CNS MPO desirability score
Experimental: ACDLAbs PhysChem Suite 14.0 software (Advanced Chemistry Development, Inc., Toronto, ON, Canada) was used for the calculation of Mw, tPSA, and HBD values. The CNS MPO score calculation method was described by [Wager et al. (2016)].
Central nervous system multiparameter optimization desirability score was calculated as described by [Wager et al. (2016)], utilizing all collected experimental and calculated data. This scoring tool was set on ranges of desirable property space and linear transformational functions with values between 0 and 1 (defined as T0 for each property). Rating each parameter equally, the collective score ranges from 0 to 6, while a score higher than 4 is desirable ([Rankovic, 2015]).

[3] = Shake-flask partition coefficient logP and distribution coefficient logD (pH 7.4); format: physicochemical; conditions: for logD: n-octanol/sodium phosphate buffer pH 7.4; for logP: n-octanol/water
Experimental: Before the initiation of the intended experiments, all solvents were mutually saturated at 21°C. […] For saturation, large stock bottles containing n-octanol and 12% of water/buffer or water/buffer and 12% of n-octanol were shaken for 30 mins on a mechanical shaker and subsequently left to stand on the bench overnight until the phases separated. Approximately 0.50 mg of tested substance was added to the test vessels alongside with 1:1 volume ratio of saturated solvents (250 μL). The test vessels were shaken on the mechanical shaker (Multi Reax, Heidolph Instruments, Schwabach, Germany) for 30 min at the highest speed and then centrifuged for phase separation (16.873 × g for 5 min; Eppendorf 5418 Microcentrifuge, Prague, Czech Republic). Both organic and aqueous phases were sampled for LC-MS analysis. UHPLC-DAD-MS (UHPLC Infinity II 1290, detection by DAD and QqQ 6470; Agilent Technologies, CA, USA; separation on Arion C18 polar column 100 × 2.1 mm, 2.1 μm; Chromservis, Czech Republic) was used for determination of the exact concentration of tested substances. The total quantity of substance (in both phases) was used for logP/logD values calculation.

BJ, RPE-1 and U373 cells = assay: Crystal violet and resazurin proliferation screen in proliferating cells; format: cell-based, human; conditions: RPE-1, U373, 0, 10, 50, 80, 100 μM, 24 h
Experimental: All cell lines used in the study were obtained from the American Type Culture Collection (ATCC, Manassas, VA, USA). Human telomerase-immortalized retinal pigment epithelial cells RPE-1, glioblastoma U-87 MG, glioblastoma U373MG, glioblastoma T98G, glioblastoma A-172, breast adenocarcinoma MDA-MB-231, prostate carcinoma DU-145, and non-small cell lung cancer NCI-H1299 cell lines were cultured in Dulbecco’s modified Eagle’s medium (DMEM, Thermo Fisher Scientific, Waltham, MA, USA) with high glucose (4.5 g/L). Primary human skin BJ fibroblasts were cultured in Dulbecco’s modified Eagle’s medium (DMEM, Thermo Fisher Scientific, Waltham, MA, USA) with low glucose (1 g/L). Both cell culture media were supplemented with 10% fetal bovine serum (FBS, Gibco/Thermo Fisher Scientific) and non-essential amino acids (NEAA), 100 units/mL of penicillin, and 100 μg/mL of streptomycin (Sigma-Aldrich). Cells were kept at 37°C under a 5% CO2 atmosphere and 95% humidity.
(§1) Twenty-four hours before treatment, cells were plated in 96-well plates at densities of 2,850 cells per well for senescent RPE-1 (IR-RPE-1), 3,350 cells per well for proliferating RPE-1 and senescent BJ (DIS-BJ), and 5,000 cells per well for U373, T98, A172, U87, TMZ-U87, and proliferating BJ cells.
(§2) For the crystal violet assay, the cells were washed twice with 150 μL PBS and stained with 30 μL 0.5% (w/v) crystal violet in 20% methanol for 15 mins. Next, the plates were washed five times with ddH2O and left to dry overnight. Crystal violet was solubilized with 75 μL 0.2% Triton X-100 (Sigma) in PBS for 15 mins. The absorbance was read at 595 nm using a microplate reader (Envision, PerkinElmer, Waltham, MA, USA). The absorbance of crystal violet in treated cells was expressed as a percentage of absorbance in untreated cells. Each condition was measured at least in triplicate.
(§3) For the resazurin assay, 200 μL of the culture medium of each well was exchanged for 100 μL of resazurin (stock solution 30 mg/mL; Sigma, St. Louis, MO, USA) diluted 10 times in the culture medium, and the cells were incubated at 37°C for 1–3 h. Reading of fluorescence was done using a microplate reader (PerkinElmer, Waltham, MA, USA). Absolute values of fluorescence were related to the values of untreated cells. Each condition was measured at least in triplicate.

[4] = Solubility by nephelometry (water, buffer pH 7.4); format: physicochemical; conditions: for solubility at 30 s: medium not told apart (water and buffer pH 7.4)
Experimental: Compounds’ solubility was measured by the NEPHELOstar microplate instrument (BMG Labtech, Offenburg, Germany). Stock solutions were prepared by dissolving the tested compounds in ultrapure water or sodium phosphate buffer (pH 7.4) to obtain a concentration of 160 and 1,000 μg/mL. Each stock solution was sonicated at full power by Hielscher UP100H needle ultrasonic processor (Teltow, Germany) before loading into NEPHELOstar instrument injector A. Ultrapure water or sodium phosphate buffer was loaded into injector B. Compound was diluted in 48 wells in 0–160 or 0–1,000 μg/mL range and subsequently shook for 30 s. Each well was scanned with 80% laser power in matrix 3 × 3, beam width 2 mm, and obtained data were evaluated in GraphPad Prism 7.03 (GraphPad Software, San Diego, CA, USA) using segmental linear regression.

[5] = system: IR-induced senescent RPE-1 cells; assay: Crystal violet and resazurin assays in IR-induced senescent RPE-1; format: cell-based, human; conditions: γ-irradiated RPE-1; crystal violet readout only
Experimental: To obtain ionizing radiation (IR)-induced senescent cells, proliferating RPE-1 cells were exposed to a single dose of X-rays (20 Gy) using Pantak HF160 (Gulmay, Surrey, UK) X-ray instrument equipped with Pantak Seifert HF320 generator, MXR-161 X-ray tube (Comet AG, Flamatt, Switzerland), and an aluminum filter using current 1–10 mA. After irradiation, the cells were cultured for an additional 7 days until the development of the senescent phenotype ([Salovska et al., 2022]). To induce docetaxel-induced senescence (DIS), BJ cells were exposed to 5 nM docetaxel for 7 days, as described previously ([Sapega et al., 2018]). To prepare temozolomide (TMZ)-induced senescence, U87 cells were exposed to 100 μM TMZ for 14 days.
as §1, §2
as §3, with “triplicate. […]” for “triplicate.”

RPE-1 cells = assay: Time-lapse microscopy (Incucyte) of proliferating RPE-1; format: cell-based, human; conditions: higher concentrations 80–100 μM, 72 h
Experimental: (§4) For auto-monitoring of cells, Incucyte SX1 Live-Cell Analysis System (Sartorius, Göttingen, Germany), located in an incubator maintained at 37°C under a 5% CO2 atmosphere and 95% humidity, was utilized. The images (1,408 × 1,040 pixels at 1.24 microns/pixel) were acquired using a 10× objective lens in phase contrast, red fluorescence (excitation: 585 ± 20 nm, emission: 635 [625, 705] nm, acquisition time: 100 ms) channels every 60 min during 72 h. The first image was acquired 30 min after adding compounds. The images were processed to measure cell confluence using Incucyte software (version 2022A). Annexin V – Dy647, Apronex (diluted 1:1,000) was used for apoptotic cell staining.

U373 cells = assay: Time-lapse microscopy (Incucyte) of U373; format: cell-based, human; conditions: 100 μM, 72 h
Experimental: as §4

[6] = from experimental and calculated data, method of Wager et al. (2016), scale 0-6
[7] = aqueous buffer, sodium phosphate buffer pH 7.4, nephelometry, read-out: Sol. (buffer 7.4)
[8] = ultrapure water, nephelometry, read-out: Sol. (H2O)
[9] = n-octanol/sodium phosphate buffer, pH 7.4, shake-flask, read-out: logD
[10] = sodium phosphate buffer pH 7.4, nephelometry

Compound | pKa ([1]; read-out: pKa1) | MPO (CNS MPO score) [2, 6] | melting point [°C] | solubility kinetic at 30 s [4, 7] [µg/mL] | solubility kinetic at 30 s [4, 8] [µg/mL] | logSH2O ([4]; water) | logSpH 7.4 ([4]; buffer pH 7.4) | solubility at 30 s [4] [µg/mL] | logD [3, 9] | logP ([3]; shake-flask, read-out: logP) | effect on the readout of crystal violet and resazurin assays (BJ, RPE-1 and U373 cells) | further results
c1ccc2[nH]c(NC3CCNCC3)nc2c1 [Compound 1, N-(piperidine-4-yl)-1H-benzo[d]imidazol-2-amine] | 6.18 ± 0.04 | 5.2 | 227 to 229 | > 160 | 33.3 (≈ 154 µM) | −3.81 |  |  |  |  | mild (although sometimes statistically significant) suppressive effect | logD ([3]; shake-flask): 0.85 ± 0.03; logP ([3]; shake-flask): 1.86 ± 0.07
Br.Br.c1ccc2[nH]c(NC3CCNCC3)nc2c1 [Compound 2, N-(piperidin-4-yl)-1H-benzo[d]imidazol-2-amine dihydrobromide] |  | 4.9 | 275 to 277 | 299 | > 1000 | >−2.58 | −3.10 | > 1000 |  |  | mild (although sometimes statistically significant) suppressive effect | pKa1 [1]: 6.08 ± 0.08; logD ([3]; shake-flask): −0.89 ± 0.11; logP ([3]; shake-flask): −1.01 ± 0.01
NC(=O)[C@@H]1CC[C@H](C(=O)O)N1 [Compound 4] | 3.17 ± 0.09 | 4.9 |  | > 1000 | > 1000 | >−2.20 | >−2.20 | > 1000 | -2.82 ± 0.22 | -2.89 ± 0.16 | mild (although sometimes statistically significant) suppressive effect | pKa ([1]; read-out: pKa2): 7.8 ± 0.11
COc1ccc(CN2CCNC2=N)cc1OC [Compound 5] |  |  |  |  |  |  |  |  | -1.78 ± 0.08 | -1.79 ± 0.04 | no effect | selectivity for senescent versus proliferating cells [5]: mild but selective effect; MPO (CNS MPO score) ([2]; experimental pKa unknown: calculated with T0(pKa) equal to zero): 4.5^a; logSH2O ([4]; 30 s): >−3.36; logSpH 7.4 ([4]; 30 s, pH 7.4): >−3.36; solubility kinetic at 30 s ([4]; pH 7.4, aqueous buffer): > 160 µg/mL; solubility kinetic at 30 s ([4]; water): > 160 µg/mL

Further lines, with some results ahead:

pKa ([1]; read-out: pKa1) | MPO (CNS MPO score) [2, 6] | melting point [°C] | solubility kinetic at 30 s [4, 7] [µg/mL] | solubility kinetic at 30 s [4, 8] [µg/mL] | logSH2O ([4]; water) | logSpH 7.4 ([4]; buffer pH 7.4) | solubility at 30 s [4] [µg/mL] | logD [3, 9] | logP ([3]; shake-flask, read-out: logP) | Compound | effect on the readout of crystal violet and resazurin assays (BJ, RPE-1 and U373 cells) | further results
4.8 ± 0.06 | 5 | 104 to 106 | < 6 | < 6 | <−4.60 | <−4.60 |  | 2.91 ± 0.01 | 2.86 ± 0.01 | CN(C)c1cccc(-c2cccc(C(N)=O)c2)c1 [Compound 6, 3’-(Dimethylamino)-[1,1’-biphenyl]-3-carboxamide] | mild (although sometimes statistically significant) suppressive effect | Sol. (buffer 7.4) [4, 10]: lower than 6 μg/mL; Sol. (H2O) ([4]; ultrapure water, nephelometry): lower than 6 μg/mL
 |  |  | > 1000 | 789 (≈ 1780 µM) | −2.75 | >−2.65 | > 1000 | 1.52 ± 0.01 | 1.48 ± 0.03 | O=C(O[C@@H]1Cc2c(O)cc(O)cc2O[C@@H]1c1ccc(O)c(O)c1)c1cc(O)c(O)c(O)c1 [Compound 7, epicatechin gallate] | mild (although sometimes statistically significant) suppressive effect | effect on cell proliferation (cell confluence, time-lapse) (RPE-1 cells): cytostatic effect; effect on cell proliferation (cell confluence, time-lapse) (U373 cells): cytostatic effect
10.7 ± 0.21 | 0.7 |  | < 6 | < 6 | <−5.18 | <−5.18 |  | 4.63 ± 0.04 | 3.97 ± 0.03 | CO[C@H]1C[C@@H]2CC[C@@H](C)[C@@](O)(O2)C(=O)C(=O)N2CCCC[C@H]2C(=O)O[C@H]([C@H](C)C[C@@H]2CC[C@@H](O)[C@H](OC)C2)CC(=O)[C@H](C)/C=C(\C)[C@@H](O)[C@@H](OC)C(=O)[C@H](C)C[C@H](C)/C=C/C=C/C=C/1C [Rapamycin, rapamycin] |  | logSpH 7.4 ([4]; buffer pH 7.4, listed as rapamycin): < −4.60; Sol. (buffer 7.4) [4, 10]: lower than 6 μg/mL; Sol. (H2O) ([4]; ultrapure water, nephelometry): lower than 6 μg/mL; logSH2O ([4]; water, listed as rapamycin): < −4.60
